Test results from BindingDB's records for doi:10.1021/acs.jmedchem.9b02101 (Kyorin Pharmaceutical, 2020).

What was measured:
[1] = Agonist activity at FPR2 in mouse peritoneal macrophages assessed as stimulation of phagocytosis preincubated for 15 mins followed by FITC labeled zymosan addition and measured after 45 mins by Trypan blue staining based fluorescence assay
[2] = Agonist activity at FPR2 in human HL-60 cells assessed as reduction in chemoattractant induced chemotaxis by luminescence cell viability assay

EC50 [1]: < 0.001 µM
Compound: COc1cc(F)c([C@@H]2CNC(=O)[C@H]2NC(=O)Nc2ccccc2)c(F)c1
IC50 [2]: 0.057 µM
